This is an account of results in paper PMC4428054, “A method for human teratogen detection by geometrically confined cell differentiation and migration” (Scientific Reports, 2015).

“Also recorded” adds a separate entry of the source. Like-named read-outs stand apart in the source and are kept apart here.

Data set [1] deals with micropatterned human pluripotent stem cell (μP-hPSC) colonies. In words: μP-hPSC model-based quantitative morphometric assay (disruption of annular mesoendoderm pattern). It counts as cell-based. The conditions noted are these: for DC value compared with known Cmax: DC in μP-hPSC model vs Cmax in human plasma; for Does DC < IC25H9?: comparison of DC with IC25 to H9 cells; for Morphologic cluster readouts across four test groups (one-way ANOVA, post-hoc): control, low, medium, high concentrations, day 3; for DC (disruption concentration): lowest concentration which morphologically disrupts the mesoendoderm pattern vs non-treated control, 3-day mesoendoderm induction; for Teratogenicity classification in the μP-hPSC model: teratogenic if DC < IC25,H9. The protocol:
(§1) The dose-dependent effect of each compound on the mesoendoderm pattern formation was determined by dosing at four test conditions: zero, low, medium and high drug concentrations (Fig. 3i). The cytotoxicity of each compound was evaluated in order to find the appropriate range of testing concentrations. […] The results would represent specific cytotoxicity to embryonic and adult cells respectively. Based on the cytotoxicity data, three drug concentrations (designated as low, medium and high) were selected such that the lowest concentration tested was not toxic to both H9 cells and aHDFs, and the highest concentration should not be cytotoxic to aHDFs. The tested concentration was considered as not cytotoxic if it was less than the drug’s 25% inhibitory concentration (IC25) to the tested cell line[25].
A series of imaging processing and statistical analysis were developed to quantitatively measure the teratogenic effects of each drug (Fig. 3). After three days of culture in the mesoendoderm induction medium, immunofluorescence images of T were acquired (Fig. 3ii). We employed similar image quantification algorithms previously used for analyzing collagen deposition patterns in fibrotic tissues[26] to extract 19 morphological attributes that describe the annular mesoendoderm pattern (Fig. 3iii). […] A dose response plot was then generated for each morphologic cluster (Fig. 3iv). One-way analysis of variance (ANOVA) was performed to determine whether there were significant morphologic differences among test groups for each drug (Fig. 3v).
This concentration was defined as the disruption concentration (DC). If DC < IC25,H9, we can infer that the drug is teratogenic, where it affects embryonic development without being cytotoxic to embryonic cells.
The readouts of each morphologic cluster across the four test groups (i.e. control, low, medium, high) were plotted for each drug and one-way ANOVA was performed to determine whether there were significant differences across the test groups (Supplementary Fig. S7–S11).
The autoclaved PDMS stencil was first sealed onto a 60 mm petri dish (Nunc) using 200 μl of 70% ethanol. After drying in the cell culture hood, 450 μl Matrigel^TM in DMEM/F12 (11330032, GIBCO) was then added into each stencil and incubated for 5 hr at 37 °C before use. To obtain single cell suspension, the hPSC culture was treated with Accutase (SCR005, Merck Millipore) for about 10 min, and the cells were resuspended in mTeSR1 medium supplemented with 10 μM Y27632 (688000, Calbiochem, Merck Millipore). The cells were seeded onto the PDMS stencils at 100% confluence density of 4444 cells/mm^2 and allowed to attach for 1 hr. The stencil was then removed and the unpatterned substrate was passivated by backfilling with 0.5% Pluronic F-127 (P2443–1KG, Sigma-Aldrich) in DMEM/F12. After 10 min incubation, the μP-hPSC colonies were washed 3 times with DMEM/F12 and incubated at least for 3 hr in mTeSR^TM1 medium supplemented with 10 μM Y27632 before changed to mTeSR^TM1 medium alone. Differentiation was initiated 24 hr post seeding and lasted for 3 days before collecting the samples. For phase contrast live imaging, images were acquired every 20 min by BioStation CT (Nikon) using 10X objective. The imaging period started since the induction of differentiation and lasted for 3 days.
Morphological feature extraction from T fluorescence images was done in MATLAB Image Processing Toolbox (Mathworks). First, the outline of the μP-hPSC colony was identified by intensity difference compared with background and its centroid position was determined.

Data set [2] deals with H9 human embryonic stem cells. The data set can be described thus: Cytotoxicity assay (MTS) in H9 cells. The following applies: for IC25H9: 25% inhibitory concentration, H9 cells, 3 days, MTS viability; for Cytotoxicity of tested concentration to hPSCs: Thalidomide 800 μM, Penicillin G 200 μg/ml. It counts as cell-based. The protocol:
as §1
The cytotoxicity test was done in 96-well tissue culture plates with 100 μl of medium with or without the drug. For each drug, 8 concentrations with 5-fold dilution were tested together with the vehicle controls. For H9 cells, the plates were coated with Matrigel^TM before cell seeding. 10,000 hES cells or 1,000 aHDF cells were plated into each well and cultured for 3 days in the test solution with half change of the medium with or without the drug every day. On day 3, cell viability was measured using CellTiter 96® AQueous One Solution Cell Proliferation Assay (MTS, G3580, Promega). […] IC25 values were acquired from either logistic regression using OriginPro 9 or direct reading from the cytotoxicity curve.

Details of data set [3]: method as in earlier work. The conditions noted are these: ref 30-34 (Table 1), Supplementary refs 1-5, cited from earlier work.
For data set [4], the system named is mouse embryonic stem cells (mESCs). The following applies: disruption of beating cardiomyocyte formation from mESCs; cited from earlier work.
A further data set deals with μP-hPSC colonies. The data set can be described thus: Quantitative RT-PCR of germ layer markers in drug-treated μP-hPSC colonies. Format: cell-based, human. The following applies: day 3; for Expression levels of MIXL1, GSC, NKX2.5, FOXA2, PAX6 and NESTIN / Expression level of mesoendoderm marker T compared to untreated control colonies / SOX17 expression level compared with untreated control colonies: Thalidomide 800 μM, Penicillin G 200 μg/ml; for Expression levels of MIXL1, GSC, NKX2.5, FOXA2, PAX6 and NESTIN: untreated control. The text has this:
Therefore, we reasoned that measuring changes in the mesoendoderm pattern, which is an assimilation of multiple cellular processes, as an assay readout for teratogenic potential, is sufficiently sensitive and may show better specificity as compared to the expression levels of a panel of molecular biomarkers for differentiation.
Total RNA was extracted from the samples on day 3 of the differentiation using the RNeasy® Plus Micro Kit (74034, QIAGEN) according to manufacturer’s protocol. Then cDNA was synthesized from the extracted RNA using High Capacity RNA-to-cDNA Kit (4387406, Applied Biosystems, Life Technologies). To analyze the gene expression levels of each sample, quantitative RT-PCR was performed using FastStart Universal SYBR Green Master (ROX) (04913914001, Roche) on the ABI 7500 Fast Real-Time PCR system (Applied Biosystems, Life Technologies) according to the manufacturer’s standard protocol. The relative quantitative expressions values of target genes were normalized to GAPDH and expressed relative to the levels of undifferentiated hPSCs using the ΔΔCT method. All primers used were commercially validated primers from GeneCopoeia^TM except for MIXL1, GSC, E-cadherin, N-cadherin, VIM, TWIST and SNAIL. The primer sequences/Catalogue numbers can be found in Supplementary Information (Supplementary Table S3).

In data set [5] the test system is adult human dermal fibroblasts (aHDFs). The data set can be described thus: Cytotoxicity assay (MTS) in adult human dermal fibroblasts. Format: cell-based. The conditions noted are these: Thalidomide 800 μM; Penicillin G 200 μg/ml. The protocol:
as §1
The cytotoxicity test was done in 96-well tissue culture plates with 100 μl of medium with or without the drug. For each drug, 8 concentrations with 5-fold dilution were tested together with the vehicle controls. For H9 cells, the plates were coated with Matrigel^TM before cell seeding. […] On day 3, cell viability was measured using CellTiter 96® AQueous One Solution Cell Proliferation Assay (MTS, G3580, Promega). […] IC25 values were acquired from either logistic regression using OriginPro 9 or direct reading from the cytotoxicity curve.

The conditions of data set [6]: human plasma, therapeutic dosing, cited from earlier work.

The term Cmax denotes the peak of the concentration-time curve.

Consider `CC(C)(S)[C@@H](N)C(=O)O` [D-penicillamine], for which, in data set [1], the “DC value compared with known Cmax” value is “lower than or equal to”; the “Does DC < IC25H9?” value was “Yes”; the “Morphologic cluster readouts across four test groups (one-way ANOVA, post-hoc)” value is recorded as “significant dose-dependent morphologic disruptions of the mesoendoderm pattern”; the “DC (disruption concentration)” value was 200 µg/mL. Also, the “Teratogenicity classification in the μP-hPSC model” value in data set [1] is reported as “Teratogenic”. The IC25H9 in data set [2] was found to be 278 µg/mL. Also, the “In vivo human data (teratogenicity)” value in data set [3] was “Teratogenic[32]”. In addition, the “In vivo human data (teratogenicity)” value in data set [3] (listed as D-Penicillamine) is “Teratogenic”. Besides, the “In mEST (teratogenicity classification)” value in data set [4] is recorded as “non-terotogenic; also recorded: Non-teratogenic”.

`CC1(C)S[C@@H]2[C@H](NC(=O)Cc3ccccc3)C(=O)N2[C@H]1C(=O)O` [Penicillin G]: the “Mesoendoderm pattern position (CL6) in high concentration test group” value in data set [1] (1,000 μg/ml vs zero dose control, post-hoc p = 0.001) is on record as “significant inward mesoenoderm pattern position toward the colony centre”. Besides, in data set [1], the “DC value compared with known Cmax” value is recorded as “much higher”; the “Does DC < IC25H9?” value was “much higher and No”; the “Morphologic cluster readouts across four test groups (one-way ANOVA, post-hoc)” value is “no significant differences among test groups in almost all morphologic clusters except CL6”; the “Teratogenicity classification in the μP-hPSC model” value is reported as “Non-teratogenic”. Moreover, in data set [2], the IC25H9 came to 787 µg/mL and the “Cytotoxicity of tested concentration to hPSCs” value is on record as “non-cytotoxic”. Also, in the data set with μP-hPSC colonies, the “Expression levels of MIXL1, GSC, NKX2.5, FOXA2, PAX6 and NESTIN” value was “no significant differences”; the “Expression level of mesoendoderm marker T compared to untreated control colonies” value is “higher expression level”; the “SOX17 expression level compared with untreated control colonies” value is reported as “no significant difference”. Further, the “Cytotoxicity of tested concentration to human adult fibroblasts” value in data set [5] was “non-cytotoxic”.

As for `CC1=C(/C=C/C(C)=C/C=C/C(C)=C/C(=O)O)C(C)(C)CCC1` [RA, Retinoic acid], in data set [1], the “DC value compared with known Cmax” value is given as “lower than or equal to”; the “Does DC < IC25H9?” value is “Yes”; the “Morphologic cluster readouts across four test groups (one-way ANOVA, post-hoc)” value is “significant dose-dependent morphologic disruptions of the mesoendoderm pattern”; the “DC (disruption concentration)” value is 0.00036 µg/mL. For the same compound, the “Teratogenicity classification in the μP-hPSC model” value in data set [1] is listed as “Teratogenic”. Further, the IC25H9 in data set [2] was greater than 2 µg/mL. The “In vivo human data (teratogenicity)” value in data set [3] was “Teratogenic[31]”. In data set [3] (listed as Retinoic acid), the “In vivo human data (teratogenicity)” value is “Teratogenic”. Besides, the “In mEST (teratogenicity classification)” value in data set [4] is “Teratogenic”. For the same compound, the maximum concentration (Cmax) in data set [6] (ref Muindi et al. (1992)) was 347 ng/mL.

Regarding `O=C1CCC(N2C(=O)c3ccccc3C2=O)C(=O)N1` (centres unmarked) [Thalidomide], the “Collective cell migration trajectory (live imaging and kymograph)” value in data set [1] (Thalidomide 800 μM, Penicillin G 200 μg/ml, 3-day live imaging, vs untreated colonies) is recorded as “migrated much more towards the colony center”. In data set [1] (Thalidomide 800 μM, Penicillin G 200 μg/ml, vs untreated colonies), the “Mesoendoderm pattern morphology (T+ cells) after 3 days” value is on record as “much wider mesoendoderm pattern that was displaced towards the colony center”. In data set [1], the “Does DC < IC25H9?” value is on record as “Yes”; the “Morphologic cluster readouts across four test groups (one-way ANOVA, post-hoc)” value is “significant dose-dependent morphologic disruptions of the mesoendoderm pattern”; the “DC (disruption concentration)” value was found to be 30 µM; the “Teratogenicity classification in the μP-hPSC model” value was “Teratogenic”. In data set [2], the IC25H9 is greater than 1000 µM and the “Cytotoxicity of tested concentration to hPSCs” value is on record as “non-cytotoxic”. Further, the “Expression level of definitive endoderm marker SOX17 compared with Penicillin G-treated colonies” value in the data set with μP-hPSC colonies (Thalidomide 800 μM vs Penicillin G 200 μg/ml) was “significantly lower”. In the data set with μP-hPSC colonies, the “Expression levels of MIXL1, GSC, NKX2.5, FOXA2, PAX6 and NESTIN” value is “no significant differences”; the “Expression level of mesoendoderm marker T compared to untreated control colonies” value is on record as “higher expression level”; the “SOX17 expression level compared with untreated control colonies” value is reported as “no significant difference”. Moreover, the “Cytotoxicity of tested concentration to human adult fibroblasts” value in data set [5] is given as “non-cytotoxic”. Further, the “In vivo human data (teratogenicity)” value in data set [3] is “Teratogenic[30]”. In data set [4], the “In mEST (teratogenicity classification)” value is “cannot be detected”. In addition, the Cmax in data set [6] (ref Teo et al. (2004), read-out: Cmax) is 10.9 µM.

For `CCCC(CCC)C(=O)O` [VPA, Valproic acid], in data set [1], the “DC value compared with known Cmax” value is “lower than or equal to”; the “Does DC < IC25H9?” value is on record as “Yes”; the “Morphologic cluster readouts across four test groups (one-way ANOVA, post-hoc)” value is given as “significant dose-dependent morphologic disruptions of the mesoendoderm pattern”; the “DC (disruption concentration)” value stood at 100 µM. This compound also registered an IC25H9 in data set [2] of 130 µM. The “In vivo human data (teratogenicity)” value in data set [3] is “Teratogenic”. Also, in data set [6] (ref Reed et al. (2006), read-out: Cmax), the Cmax was 574 µM.
